Patent US4623715A, “Novel peptides which are active on the central nervous system and have an action on the cholinergic system” (Hoechst Aktiengeselleschaft, priority 1984, dated 1986)

Assays:
[1] = tested on: cholinergic system (striatum of rats); assay: Biochemical effects in the striatum (acetylcholine and choline content) after s.c. administration; action on the cholinergic system; type: in vivo; conditions: for Biochemical effects in the striatum: ACH (acetylcholine) / Biochemical effects in the striatum: CH (choline): s.c., at the dose printed in the same line (E2), arrow up/down = content increased/reduced; for Biochemical effects in the striatum: Dose mcg/kg s.c.; (rats): s.c. dose in rats at which the ACH/CH effects of the same line are reported
Procedure: At the same time, cholinergic mechanisms in the central nervous system (CNS) are influenced. In the striatum of rats, the choline content is reduced and the acetylcholine content is increased following subcutaneous administration of 10 μg.
The action of the compounds according to the invention on the cholinergic system is determined by a method described in J. Neurochem. 20 (1973), pages 1-8.

rats = assay: Behavior (grooming, yawning, stretching; urge to groom and move) after i.c.v. administration; type: in vivo; conditions: i.c.v. administration of 10 μg
[2] = tested on: acetylcholine conversion in various areas of the brain; conditions: intracerebroventricular (i.c.v.) administration; cited from earlier work
[3] = tested on: cholinergic system (striatum of rats); assay: Biochemical effects in the striatum (acetylcholine and choline content) after s.c. administration; action on the cholinergic system; type: in vivo; conditions: s.c. administration of 1 μg
[4] = rats, subcutaneous administration of 10 μg

Row | Molecule | acetylcholine content in the striatum [1, 4] | choline content in the striatum [1, 4] | urge to groom and move (rats) | acetylcholine conversion in various areas of the brain [2] | acetylcholine content in the striatum ([3]; same actions as IV at 10 μg (increased)) | choline content in the striatum ([3]; same actions as IV at 10 μg (reduced)) | Biochemical effects in the striatum: ACH (acetylcholine) ([1]; rats) | Biochemical effects in the striatum: CH (choline) ([1]; rats) | Biochemical effects in the striatum: Dose mcg/kg s.c.; (rats) [1] [µg/kg]
1 | COC(=O)[C@H](Cc1ccccc1)NC(=O)[C@H](CCCCN)NC(=O)OCc1ccccc1 [IV, Z--Lys--Phe--OMe] | increased | reduced | cause the urge to groom and move |  |  |  |  |  | 
2 | ACTH (SYSMEHFRWGKPVGKKRRPVKVYPNGAEDESAEAFPLEF; Corticotropin; UniProt P01189 138-176, looked up) [peptide hormone cited from the literature] |  |  |  | acceleration |  |  |  |  | 
3 | Z--D--Lys--Phe--NH--(CH2)8 --NH2.2HCl [V] |  |  |  |  | the same actions | the same actions | .uparw. | .dwnarw. | 1.0
4 | ACTH--(1-24) [VI, reference compound] |  |  |  | acceleration |  |  | .dwnarw. | .uparw. | 0.01 to 1
